Source: PMC11079024, “Identification of a family of species-selective complex I inhibitors as potential anthelmintics” (Nature Communications, 2024)

Test system: anthelmintic/nematicide-resistant C. elegans mutant strains
Test: microbe, parasite or virus in culture
Excerpt: In addition to the Caenorhabditis elegans wild-type N2 strain, this work included the following C. elegans strains: CB1003 (kynu-1(e1003) X); anthelmintic-resistant strains—CB3474 (ben-1(e1880) III), CB193 (unc-29(e193) I), HY496 (bre-1(ye4) IV), RB2119 (acr-23(ok2804) V), JD608 (avr-14(ad1302) I; avr-15(ad1051) V; glc-1 (pk54) V), NM1968 (slo-1(js379) V), RP2635 (mev-1(tr355) III); benzimidazole-resistant CRISPR strains—ECA882 (ben-1(ean64) III), ECA917 (ben-1(ean98) III), ECA1075 (ben-1(ean143) III), ECA1080 (ben-1(ean148) III). This work also featured several additional free-living nematode strains: C. briggsae strain AF16, P. pacificus strain PS312, and P. hermaphrodita strain B178. The four CRISPR-generated benzimidazole-resistant C. elegans mutants were generously provided by Prof. Erik Andersen (Johns Hopkins University); PS312 and B178 were generously provided by Prof. Peter Roy (University of Toronto); all other strains were obtained from the Caenorhabditis Genetics Center (CGC, University of Minnesota). All strains were cultured and propagated at 20 °C on NGM (nematode growth medium) agar plates seeded with E. coli OP50 (Stiernagle, 2006)[56].
Liquid development and viability assays were adapted from a previously established chemical screening protocol (Burns et al.)[24]. In brief, a saturated culture of E. coli HB101 was concentrated 2-fold in liquid NGM and 40 μL of this suspension was distributed to each well of a 96-well flat-bottom culture plate. 0.5 μL chemical solution (or DMSO alone) was added to each well (1% DMSO v/v) using either a multi-channel pipette or a pinning tool (V&P Scientific). L1 worms synchronized from an embryo preparation performed the day prior were diluted to a concentration of ~2 worms/μL in M9 buffer; 10 μL worm suspension was then added to each well. Culture plates were sealed with parafilm and placed in a plastic container lined with wet paper towels to prevent evaporation. Containers were then incubated for 6 days at 20 °C with shaking at 165 rpm. Following incubation, 300 μL M9 was added to each well to decrease the turbidity of the HB101-NGM suspension. Single images of each microplate well were then taken on a Nikon Ti Eclipse inverted microscope (Nikon NIS Elements AR). Images were processed using Python scripts to isolate worm-associated pixels from background. Scores of worm development and viability were determined as the sum of worm-associated pixels in each well. Development/viability scores for each well were divided by the development /viability scores for the corresponding DMSO controls, resulting in a relative viability value for each chemical. At least three biological replicates were performed for each dose-response experiment; relative viability values were averaged across replicates.
Supplementary Table 2. Sensitivity of anthelmintic/nematicide-resistant strains to Class A, B, and C
benzimidazole complex I inhibitors.
LC50s were estimated from fitted dose-
response curves; all dose response data are the mean of at least three biological replicates.
Supplementary Table 2. Davie et al.

COC(=O)Nc1nc2ccc(Sc3ccccc3)cc2[nH]1 [fenbendazole, reference compound]
1.000: C. elegans L1 relative development & viability (score 0-1 relative to DMSO controls) (1 µM, strain CB3474, G104D (ben-1)) | C. elegans L1 relative development & viability (score 0-1 relative to DMSO controls) (1 µM, strain ECA917, F200Y (ben-1)) | C. elegans L1 relative development & viability (score 0-1 relative to DMSO controls) (1 µM, strain ECA1075, F167Y (ben-1)) | C. elegans L1 relative development & viability (score 0-1 relative to DMSO controls) (1 µM, strain ECA1080, E198A (ben-1)) | C. elegans L1 relative development & viability (score 0-1 relative to DMSO controls) (2 µM, strain CB3474, G104D (ben-1)) | C. elegans L1 relative development & viability (score 0-1 relative to DMSO controls) (2 µM, strain ECA917, F200Y (ben-1)) | C. elegans L1 relative development & viability (score 0-1 relative to DMSO controls) (2 µM, strain ECA1075, F167Y (ben-1)) | C. elegans L1 relative development & viability (score 0-1 relative to DMSO controls) (2 µM, strain ECA1080, E198A (ben-1)) | C. elegans L1 relative development & viability (score 0-1 relative to DMSO controls) (3.9 µM, strain CB3474, G104D (ben-1)) | C. elegans L1 relative development & viability (score 0-1 relative to DMSO controls) (3.9 µM, strain ECA917, F200Y (ben-1)) | C. elegans L1 relative development & viability (score 0-1 relative to DMSO controls) (3.9 µM, strain ECA1075, F167Y (ben-1)) | C. elegans L1 relative development & viability (score 0-1 relative to DMSO controls) (3.9 µM, strain ECA1080, E198A (ben-1)) | C. elegans L1 relative development & viability (score 0-1 relative to DMSO controls) (15.6 µM, strain CB3474, G104D (ben-1)) | C. elegans L1 relative development & viability (score 0-1 relative to DMSO controls) (15.6 µM, strain ECA917, F200Y (ben-1)) | C. elegans L1 relative development & viability (score 0-1 relative to DMSO controls) (15.6 µM, strain ECA1075, F167Y (ben-1)) | C. elegans L1 relative development & viability (score 0-1 relative to DMSO controls) (31.3 µM, strain CB3474, G104D (ben-1)) | C. elegans L1 relative development & viability (score 0-1 relative to DMSO controls) (31.3 µM, strain ECA917, F200Y (ben-1)) | C. elegans L1 relative development & viability (score 0-1 relative to DMSO controls) (31.3 µM, strain ECA1075, F167Y (ben-1)) | C. elegans L1 relative development & viability (score 0-1 relative to DMSO controls) (31.3 µM, strain ECA1080, E198A (ben-1)) | C. elegans L1 relative development & viability (score 0-1 relative to DMSO controls) (62.5 µM, strain ECA917, F200Y (ben-1)) | C. elegans L1 relative development & viability (score 0-1 relative to DMSO controls) (62.5 µM, strain ECA1080, E198A (ben-1)) | C. elegans L1 relative development & viability (CB3474 G104D (ben-1), 1 µM, score 0-1 relative to DMSO, values >1 set to 1) | C. elegans L1 relative development & viability (CB3474 G104D (ben-1), 2 µM, score 0-1 relative to DMSO, values >1 set to 1) | C. elegans L1 relative development & viability (CB3474 G104D (ben-1), 3.9 µM, score 0-1 relative to DMSO, values >1 set to 1) | C. elegans L1 relative development & viability (CB3474 G104D (ben-1), 15.6 µM, score 0-1 relative to DMSO, values >1 set to 1) | C. elegans L1 relative development & viability (CB3474 G104D (ben-1), 31.3 µM, score 0-1 relative to DMSO, values >1 set to 1) | C. elegans L1 relative development & viability (ECA917 F200Y (ben-1), 1 µM, score 0-1 relative to DMSO, values >1 set to 1) | C. elegans L1 relative development & viability (ECA917 F200Y (ben-1), 2 µM, score 0-1 relative to DMSO, values >1 set to 1) | C. elegans L1 relative development & viability (ECA917 F200Y (ben-1), 3.9 µM, score 0-1 relative to DMSO, values >1 set to 1) | C. elegans L1 relative development & viability (ECA917 F200Y (ben-1), 15.6 µM, score 0-1 relative to DMSO, values >1 set to 1) | C. elegans L1 relative development & viability (ECA917 F200Y (ben-1), 31.3 µM, score 0-1 relative to DMSO, values >1 set to 1) | C. elegans L1 relative development & viability (ECA917 F200Y (ben-1), 62.5 µM, score 0-1 relative to DMSO, values >1 set to 1) | C. elegans L1 relative development & viability (ECA1075 F167Y (ben-1), 1 µM, score 0-1 relative to DMSO, values >1 set to 1) | C. elegans L1 relative development & viability (ECA1075 F167Y (ben-1), 2 µM, score 0-1 relative to DMSO, values >1 set to 1) | C. elegans L1 relative development & viability (ECA1075 F167Y (ben-1), 3.9 µM, score 0-1 relative to DMSO, values >1 set to 1) | C. elegans L1 relative development & viability (ECA1075 F167Y (ben-1), 15.6 µM, score 0-1 relative to DMSO, values >1 set to 1) | C. elegans L1 relative development & viability (ECA1075 F167Y (ben-1), 31.3 µM, score 0-1 relative to DMSO, values >1 set to 1) | C. elegans L1 relative development & viability (ECA1080 E198A (ben-1), 1 µM, score 0-1 relative to DMSO, values >1 set to 1) | C. elegans L1 relative development & viability (ECA1080 E198A (ben-1), 2 µM, score 0-1 relative to DMSO, values >1 set to 1) | C. elegans L1 relative development & viability (ECA1080 E198A (ben-1), 3.9 µM, score 0-1 relative to DMSO, values >1 set to 1) | C. elegans L1 relative development & viability (ECA1080 E198A (ben-1), 31.3 µM, score 0-1 relative to DMSO, values >1 set to 1) | C. elegans L1 relative development & viability (ECA1080 E198A (ben-1), 62.5 µM, score 0-1 relative to DMSO, values >1 set to 1)
0.759: C. elegans L1 relative development & viability (score 0-1 relative to DMSO controls) (125 µM, strain ECA1080, E198A (ben-1)) | C. elegans L1 relative development & viability (ECA1080 E198A (ben-1), 125 µM, […])
0.845: C. elegans L1 relative development & viability (score 0-1 relative to DMSO controls) (62.5 µM, strain CB3474, G104D (ben-1)) | C. elegans L1 relative development & viability (CB3474 G104D (ben-1), 62.5 µM, […])
0.599: C. elegans L1 relative development & viability (score 0-1 relative to DMSO controls) (500 µM, strain ECA1075, F167Y (ben-1)) | C. elegans L1 relative development & viability (ECA1075 F167Y (ben-1), 500 µM, […])
0.835: C. elegans L1 relative development & viability (score 0-1 relative to DMSO controls) (250 µM, strain ECA917, F200Y (ben-1)) | C. elegans L1 relative development & viability (ECA917 F200Y (ben-1), 250 µM, […])
0.716: C. elegans L1 relative development & viability (score 0-1 relative to DMSO controls) (500 µM, strain ECA917, F200Y (ben-1)) | C. elegans L1 relative development & viability (ECA917 F200Y (ben-1), 500 µM, […])
0.784: C. elegans L1 relative development & viability (score 0-1 relative to DMSO controls) (125 µM, strain ECA917, F200Y (ben-1)) | C. elegans L1 relative development & viability (ECA917 F200Y (ben-1), 125 µM, […])
0.957: C. elegans L1 relative development & viability (score 0-1 relative to DMSO controls) (15.6 µM, strain ECA1080, E198A (ben-1)) | C. elegans L1 relative development & viability (ECA1080 E198A (ben-1), 15.6 µM, […])
0.665: C. elegans L1 relative development & viability (score 0-1 relative to DMSO controls) (125 µM, strain ECA1075, F167Y (ben-1)) | C. elegans L1 relative development & viability (ECA1075 F167Y (ben-1), 125 µM, […])
0.790: C. elegans L1 relative development & viability (score 0-1 relative to DMSO controls) (125 µM, strain CB3474, G104D (ben-1)) | C. elegans L1 relative development & viability (CB3474 G104D (ben-1), 125 µM, […])
0.934: C. elegans L1 relative development & viability (score 0-1 relative to DMSO controls) (62.5 µM, strain ECA1075, F167Y (ben-1)) | C. elegans L1 relative development & viability (ECA1075 F167Y (ben-1), 62.5 µM, […])
0.796: C. elegans L1 relative development & viability (score 0-1 relative to DMSO controls) (250 µM, strain ECA1075, F167Y (ben-1)) | C. elegans L1 relative development & viability (ECA1075 F167Y (ben-1), 250 µM, […])
0.597: C. elegans L1 relative development & viability (score 0-1 relative to DMSO controls) (500 µM, strain ECA1080, E198A (ben-1)) | C. elegans L1 relative development & viability (ECA1080 E198A (ben-1), 500 µM, […])
0.720: C. elegans L1 relative development & viability (score 0-1 relative to DMSO controls) (250 µM, strain CB3474, G104D (ben-1)) | C. elegans L1 relative development & viability (CB3474 G104D (ben-1), 250 µM, […])
0.686: C. elegans L1 relative development & viability (score 0-1 relative to DMSO controls) (250 µM, strain ECA1080, E198A (ben-1)) | C. elegans L1 relative development & viability (ECA1080 E198A (ben-1), 250 µM, […])
0.538: C. elegans L1 relative development & viability (score 0-1 relative to DMSO controls) (500 µM, strain CB3474, G104D (ben-1)) | C. elegans L1 relative development & viability (CB3474 G104D (ben-1), 500 µM, […])
